{
  "source": "patent US20100041089A1",
  "about": "“IMPROVED METHOD FOR DETECTING CHEMICAL […]” (priority 2006, published 2010)",
  "tested_on": "yeast genes (expressed mRNA)",
  "assay": "DNA chip measurement of expressed mRNA of yeast genes after culture with a toxic chemical substance",
  "type": "cell-based, Saccharomyces cerevisiae S288C",
  "conditions": "for level of expressed mRNA in the presence of chemical substance / level in the absence of chemical substance: cultured two hours with the chemical substance; for The level of expressed mRNA in the presence of chemical substance/The level of expressed mRNA in the absence of chemical substance: cultured two hours with substance",
  "outline": "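S. cerevisiae S288C grown at 25 °C in YPD, exposed in log phase for 2 h to a toxicant at growth-inhibiting, non-lethal concentration. Cy3/Cy5-labelled cDNA from poly(A) mRNA hybridized to whole-genome chip at 65 °C >12 h. Ratio to untreated control, ≥2 significant.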",
  "data": [
    {"substance": "Manganese ethylenebis(dithiocarbamate) [(8)]", "values": [
      {"measurement": "level of expressed mRNA in the presence of chemical substance / level in the absence of chemical substance", "setting": "yeast gene YJL097W", "value": 0.8},
      {"measurement": "The level of expressed mRNA in the presence of chemical substance/The level of expressed mRNA in the absence of chemical substance", "setting": "yeast gene YJL151C", "value": 0.8},
      {"measurement": "The level of expressed mRNA in the presence of chemical substance/The level of expressed mRNA in the absence of chemical substance", "setting": "yeast gene YJL152W", "value": 0.7},
      {"measurement": "The level of expressed mRNA in the presence of chemical substance/The level of expressed mRNA in the absence of chemical substance", "setting": "yeast gene YJL161W", "value": 1.4},
      {"measurement": "The level of expressed mRNA in the presence of chemical substance/The level of expressed mRNA in the absence of chemical substance", "setting": "yeast gene YJL171C", "value": 0.9},
      {"measurement": "The level of expressed mRNA in the presence of chemical substance/The level of expressed mRNA in the absence of chemical substance", "setting": "yeast gene YJR008W", "value": 1.1},
      {"measurement": "level of expressed mRNA in the presence of chemical substance / level in the absence of chemical substance", "setting": "yeast gene YJR030C", "value": 0.9},
      {"measurement": "The level of expressed mRNA in the presence of chemical substance/The level of expressed mRNA in the absence of chemical substance", "setting": "yeast gene YJR054W", "value": 1.6},
      {"measurement": "level of expressed mRNA in the presence of chemical substance / level in the absence of chemical substance", "setting": "yeast gene YKL051W", "value": 0.8},
      {"measurement": "The level of expressed mRNA in the presence of chemical substance/The level of expressed mRNA in the absence of chemical substance", "setting": "yeast gene YKL071W", "value": 24.7},
      {"measurement": "The level of expressed mRNA in the presence of chemical substance/The level of expressed mRNA in the absence of chemical substance", "setting": "yeast gene YKL086W", "value": 1.1},
      {"measurement": "level of expressed mRNA in the presence of chemical substance / level in the absence of chemical substance", "setting": "yeast gene YKL097C", "value": 0.4},
      {"measurement": "level of expressed mRNA in the presence of chemical substance / level in the absence of chemical substance", "setting": "yeast gene YKL100C", "value": 0.7},
      {"measurement": "The level of expressed mRNA in the presence of chemical substance/The level of expressed mRNA in the absence of chemical substance", "setting": "yeast gene YKL151C", "value": 1.0},
      {"measurement": "The level of expressed mRNA in the presence of chemical substance/The level of expressed mRNA in the absence of chemical substance", "setting": "yeast gene YKL153W", "value": 0.7},
      {"measurement": "The level of expressed mRNA in the presence of chemical substance/The level of expressed mRNA in the absence of chemical substance", "setting": "yeast gene YKL195W", "value": 1.2},
      {"measurement": "level of expressed mRNA in the presence of chemical substance / level in the absence of chemical substance", "setting": "yeast gene YKR040C", "value": 1.0},
      {"measurement": "The level of expressed mRNA in the presence of chemical substance/The level of expressed mRNA in the absence of chemical substance", "setting": "yeast gene YKR091W", "value": 1.3},
      {"measurement": "The level of expressed mRNA in the presence of chemical substance/The level of expressed mRNA in the absence of chemical substance", "setting": "yeast gene YLR054C", "value": 1.1},
      {"measurement": "The level of expressed mRNA in the presence of chemical substance/The level of expressed mRNA in the absence of chemical substance", "setting": "yeast gene YLR149C", "value": 1.1},
      {"measurement": "The level of expressed mRNA in the presence of chemical substance/The level of expressed mRNA in the absence of chemical substance", "setting": "yeast gene YLR152C", "value": 1.2},
      {"measurement": "The level of expressed mRNA in the presence of chemical substance/The level of expressed mRNA in the absence of chemical substance", "setting": "yeast gene YLR194C", "value": 1.0},
      {"measurement": "level of expressed mRNA in the presence of chemical substance / level in the absence of chemical substance", "setting": "yeast gene YLR226W", "value": 1.3},
      {"measurement": "The level of expressed mRNA in the presence of chemical substance/The level of expressed mRNA in the absence of chemical substance", "setting": "yeast gene YLR324W", "value": 1.0},
      {"measurement": "level of expressed mRNA in the presence of chemical substance / level in the absence of chemical substance", "setting": "yeast gene YLR338W", "value": 0.8},
      {"measurement": "The level of expressed mRNA in the presence of chemical substance/The level of expressed mRNA in the absence of chemical substance", "setting": "yeast gene YLR350W", "value": 1.0},
      {"measurement": "The level of expressed mRNA in the presence of chemical substance/The level of expressed mRNA in the absence of chemical substance", "setting": "yeast gene YLR387C", "value": 1.4},
      {"measurement": "level of expressed mRNA in the presence of chemical substance / level in the absence of chemical substance", "setting": "yeast gene YLR392C", "value": 1.3},
      {"measurement": "level of expressed mRNA in the presence of chemical substance / level in the absence of chemical substance", "setting": "yeast gene YLR415C", "value": 0.9},
      {"measurement": "level of expressed mRNA in the presence of chemical substance / level in the absence of chemical substance", "setting": "yeast gene YLR427W", "value": 1.1},
      {"measurement": "The level of expressed mRNA in the presence of chemical substance/The level of expressed mRNA in the absence of chemical substance", "setting": "yeast gene YLR460C", "value": 8.1},
      {"measurement": "level of expressed mRNA in the presence of chemical substance / level in the absence of chemical substance", "setting": "yeast gene YML013W", "value": 0.6},
      {"measurement": "level of expressed mRNA in the presence of chemical substance / level in the absence of chemical substance", "setting": "yeast gene YML029W", "value": 0.9},
      {"measurement": "level of expressed mRNA in the presence of chemical substance / level in the absence of chemical substance", "setting": "yeast gene YML041C", "value": 1.8},
      {"measurement": "level of expressed mRNA in the presence of chemical substance / level in the absence of chemical substance", "setting": "yeast gene YML079W", "value": 1.2},
      {"measurement": "The level of expressed mRNA in the presence of chemical substance/The level of expressed mRNA in the absence of chemical substance", "setting": "yeast gene YML117W", "value": 0.7},
      {"measurement": "The level of expressed mRNA in the presence of chemical substance/The level of expressed mRNA in the absence of chemical substance", "setting": "yeast gene YMR009W", "value": 1.4},
      {"measurement": "The level of expressed mRNA in the presence of chemical substance/The level of expressed mRNA in the absence of chemical substance", "setting": "yeast gene YMR067C", "value": 1.1},
      {"measurement": "level of expressed mRNA in the presence of chemical substance / level in the absence of chemical substance", "setting": "yeast gene YMR068W", "value": 0.8},
      {"measurement": "level of expressed mRNA in the presence of chemical substance / level in the absence of chemical substance", "setting": "yeast gene YMR071C", "value": 1.1},
      {"measurement": "The level of expressed mRNA in the presence of chemical substance/The level of expressed mRNA in the absence of chemical substance", "setting": "yeast gene YMR090W", "value": 3.9},
      {"measurement": "The level of expressed mRNA in the presence of chemical substance/The level of expressed mRNA in the absence of chemical substance", "setting": "yeast gene YMR095C", "value": 1.2},
      {"measurement": "The level of expressed mRNA in the presence of chemical substance/The level of expressed mRNA in the absence of chemical substance", "setting": "yeast gene YMR097C", "value": 1.5},
      {"measurement": "The level of expressed mRNA in the presence of chemical substance/The level of expressed mRNA in the absence of chemical substance", "setting": "yeast gene YMR102C", "value": 1.0},
      {"measurement": "The level of expressed mRNA in the presence of chemical substance/The level of expressed mRNA in the absence of chemical substance", "setting": "yeast gene YMR107W", "value": 1.3},
      {"measurement": "level of expressed mRNA in the presence of chemical substance / level in the absence of chemical substance", "setting": "yeast gene YMR160W", "value": 0.9},
      {"measurement": "The level of expressed mRNA in the presence of chemical substance/The level of expressed mRNA in the absence of chemical substance", "setting": "yeast gene YMR180C", "value": 1.8},
      {"measurement": "The level of expressed mRNA in the presence of chemical substance/The level of expressed mRNA in the absence of chemical substance", "setting": "yeast gene YMR184W", "value": 1.9},
      {"measurement": "The level of expressed mRNA in the presence of chemical substance/The level of expressed mRNA in the absence of chemical substance", "setting": "yeast gene YMR191W", "value": 1.1},
      {"measurement": "The level of expressed mRNA in the presence of chemical substance/The level of expressed mRNA in the absence of chemical substance", "setting": "yeast gene YMR295C", "value": 1.0},
      {"measurement": "The level of expressed mRNA in the presence of chemical substance/The level of expressed mRNA in the absence of chemical substance", "setting": "yeast gene YMR316W", "value": 1.6},
      {"measurement": "level of expressed mRNA in the presence of chemical substance / level in the absence of chemical substance", "setting": "yeast gene YNL026W", "value": 1.0}
    ]}
  ]
}
